In ChEMBL document CHEMBL5725519, “Substituted benzamides and methods of use thereof” (2017):

How the values were obtained:
[1] = molecular target: Sodium channel protein type 9 subunit alpha (Homo sapiens, UniProt Q15858); assay: (§1) Control sodium currents were measured in 0.5% DMSO.; assay type: cell-based
[2] = as §1; assay type: cell-based

Sodium channel protein type 9 subunit alpha, sequence (Q15858 whole entry): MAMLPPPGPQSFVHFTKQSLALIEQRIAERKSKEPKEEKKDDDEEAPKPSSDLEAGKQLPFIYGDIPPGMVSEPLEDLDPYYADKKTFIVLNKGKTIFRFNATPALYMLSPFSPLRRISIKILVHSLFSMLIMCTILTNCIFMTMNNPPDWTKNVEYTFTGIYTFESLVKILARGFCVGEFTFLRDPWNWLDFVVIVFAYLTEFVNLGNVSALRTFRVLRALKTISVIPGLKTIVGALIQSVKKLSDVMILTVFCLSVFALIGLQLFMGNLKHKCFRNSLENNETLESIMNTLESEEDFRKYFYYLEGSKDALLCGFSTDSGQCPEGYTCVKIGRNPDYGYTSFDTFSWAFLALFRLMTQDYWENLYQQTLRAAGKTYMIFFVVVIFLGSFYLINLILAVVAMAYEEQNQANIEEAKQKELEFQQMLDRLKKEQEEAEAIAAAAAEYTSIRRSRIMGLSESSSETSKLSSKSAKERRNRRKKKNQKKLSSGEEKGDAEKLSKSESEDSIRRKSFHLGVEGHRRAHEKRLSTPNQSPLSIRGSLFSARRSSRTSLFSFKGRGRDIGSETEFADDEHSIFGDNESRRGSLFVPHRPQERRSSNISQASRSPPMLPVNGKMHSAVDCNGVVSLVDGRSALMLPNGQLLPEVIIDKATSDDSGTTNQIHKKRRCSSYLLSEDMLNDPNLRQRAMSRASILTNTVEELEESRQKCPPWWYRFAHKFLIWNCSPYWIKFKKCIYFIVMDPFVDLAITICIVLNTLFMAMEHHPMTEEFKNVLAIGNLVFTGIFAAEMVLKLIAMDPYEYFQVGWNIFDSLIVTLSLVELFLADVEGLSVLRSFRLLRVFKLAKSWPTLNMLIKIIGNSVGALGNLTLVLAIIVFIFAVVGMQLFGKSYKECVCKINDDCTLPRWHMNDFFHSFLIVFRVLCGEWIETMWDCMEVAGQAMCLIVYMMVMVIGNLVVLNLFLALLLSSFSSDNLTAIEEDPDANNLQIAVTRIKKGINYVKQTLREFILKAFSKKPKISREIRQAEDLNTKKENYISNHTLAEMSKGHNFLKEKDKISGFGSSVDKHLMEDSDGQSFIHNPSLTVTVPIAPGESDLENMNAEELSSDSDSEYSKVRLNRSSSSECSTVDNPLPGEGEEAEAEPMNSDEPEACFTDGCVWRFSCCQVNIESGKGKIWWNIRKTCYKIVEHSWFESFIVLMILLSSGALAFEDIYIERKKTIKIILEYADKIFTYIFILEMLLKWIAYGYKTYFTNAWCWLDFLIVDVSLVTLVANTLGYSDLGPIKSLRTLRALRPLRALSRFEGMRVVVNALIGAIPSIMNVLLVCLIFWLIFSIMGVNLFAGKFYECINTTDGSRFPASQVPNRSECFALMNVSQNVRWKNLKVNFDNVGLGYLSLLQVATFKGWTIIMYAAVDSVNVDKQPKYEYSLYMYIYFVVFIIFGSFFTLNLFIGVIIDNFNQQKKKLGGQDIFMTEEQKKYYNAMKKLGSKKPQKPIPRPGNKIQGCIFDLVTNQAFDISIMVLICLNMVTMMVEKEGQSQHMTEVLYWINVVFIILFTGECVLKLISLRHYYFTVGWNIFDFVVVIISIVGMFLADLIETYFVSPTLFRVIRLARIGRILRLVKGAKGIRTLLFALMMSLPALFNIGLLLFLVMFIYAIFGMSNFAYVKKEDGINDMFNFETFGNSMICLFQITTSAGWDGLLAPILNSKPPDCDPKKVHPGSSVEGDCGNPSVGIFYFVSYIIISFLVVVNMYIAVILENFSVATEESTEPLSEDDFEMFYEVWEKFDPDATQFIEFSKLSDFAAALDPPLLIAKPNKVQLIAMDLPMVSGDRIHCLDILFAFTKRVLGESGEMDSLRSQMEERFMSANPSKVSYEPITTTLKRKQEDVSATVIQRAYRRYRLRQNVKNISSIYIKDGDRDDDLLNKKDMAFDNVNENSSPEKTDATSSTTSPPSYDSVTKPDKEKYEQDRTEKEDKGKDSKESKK

SMILES	IC50 [1]	IC50 [2]
O=C(NS(=O)(=O)N1CCC1)c1cc(C2CC2)c(OCC2CC3CCC(C2)N3C(c2ccccc2)c2ccccc2)cc1F (configuration not stated)	5.4 nM	
CS(=O)(=O)NC(=O)c1cc(C2CC2)c(OCC2CCN(Cc3ccc(Cl)c(C(F)(F)F)c3)CC2)cc1F		169 nM
